Data set [1] in a line: Acute oral toxicity test in mice (LD50, Litchfield-Wilcoxon). The following applies: mouse, in vivo. The procedure: Male dd-mice were divided into groups of 5 and fasted for 8 hours. The test compounds were administered orally to the mice weighing from 19.7 g. to 22.0 g. The mice were observed survival or death as well as the general symptoms over 7 days after the administration of the compounds. The value of LD50 for each compound was estimated from the mortality observed on the basis of the Litchfield-Wilcoxon method.
In a similar test, the test compound of example 27, 35, 66, 84, 97, 104, 118, 125 or 129 was administered orally to the mice at a dose of 1500 mg/kg.

Data set [2] deals with acid secretion in pylorus-ligated rats. Nature of the data set: Anti-secretory effect (histamine-stimulated gastric acid secretion) in pylorus-ligated rat. The data set is classed as in vivo, male wistar rats. The following applies: Rattus norvegicus, sc, 3 h; 2 mg/kg s.c., 30 min before histamine 3 mg/kg s.c.; n=5; * significant at 5%, ** at 1% vs control; read-out: inhibitory effect of acid secretion (%) at 2 mg/kg s.c. Here is the method:
(A) Anti-secretory Effect in Pylorus-ligated Rat
After 24 hr fasting, male wistar rats weighing about 160 g were anesthetized by intraperitoreal injection of urethans 1.2 g/kg. Then, after ligating the pylorus and the esophagus, the proventriculus was incised and a double polyethylene cannula was inserted. The gastric wall was washed out with 5 ml of physiological saline every 30 minutes and the amount of acid contained in the saline after washing was measured by titration. After measuring the basal acid secretion of the pylorus ligated rats three times, the compounds of the invention, 2 mg/kg, were administered subcutaneously and, 30 minutes thereafter, histamine 3 mg/kg, was administered also subcutaneously. Then, the amounts of acid secretion were measured for 3 hours. […] Then, an inhibition rate was calculated in accordance with the following formula, in relation to the increment values measured for the control group. [formula]
One group included five examples.

Data set [3] addresses T1, histamine H2 receptor in atria (Cavia porcellus, UniProt P47747).
T1 construct: right atrium was isolated; from tissue; host or cells: isolated right atrium of male Hartley guinea pig
Nature of the data set: Histamine H2 receptor inhibition effect by isolated guinea pig right atrium preparation (negative chronotropic effect). The data set is classed as cell-based, Male Hartley Guinea Pig. As to conditions: 5×10^-6 mol sample 3 minutes prior to histamine, mean of five, read-out: inhibitory effect of histamine H2 receptor in atria (pA2 value) (converted). The procedure:
(B) Measurement of Histamine H2 Receptor Inhibition Effect by Isolated Guinea Pig Right Atrium Preparation
Male Hartley Guinea Pig weighing around 400 g was sacrified by decapitation, and right atrium was isolated. The right atrium was suspended in an organ bath (50 ml) containing modified Ringer solution. Under application of a tensile load of 1 g, the heart rate was recorded by means of a polygraph. Histamine was applied cumulatively from 1×10^-7 mol to 3×10^-4 mol and a cumulative dosage response curve was drawn. Then, 5×10^-6 mol of the sample was administered 3 minutes prios to histamine application. The negative logarithmic value (pA2) of the specimen molarity required for shifting the curve to the right to double concentration was calculated.

Data set [4] deals with acid secretion in pylorus-ligated rats. Nature of the data set: Anti-secretory effect (histamine-stimulated gastric acid secretion) in pylorus-ligated rat. The following applies: for ED50: read-out: ED 50 (acid secretion inhibition); for acid secretion inhibition: 5 rats. The data set is classed as in vivo, male wistar rats.
Setting [5] is: similar test, oral dose of 1500 mg/kg.

The record followed here is patent US4550118A, “Heterocyclic compounds” (Ikeda Mohando Co., Ltd., priority 1982, dated 1985).

Structures can show the parent of a compound that is named as a salt. Where two headings read alike, the source gives them in different places.

T1 sequence (P47747 whole entry): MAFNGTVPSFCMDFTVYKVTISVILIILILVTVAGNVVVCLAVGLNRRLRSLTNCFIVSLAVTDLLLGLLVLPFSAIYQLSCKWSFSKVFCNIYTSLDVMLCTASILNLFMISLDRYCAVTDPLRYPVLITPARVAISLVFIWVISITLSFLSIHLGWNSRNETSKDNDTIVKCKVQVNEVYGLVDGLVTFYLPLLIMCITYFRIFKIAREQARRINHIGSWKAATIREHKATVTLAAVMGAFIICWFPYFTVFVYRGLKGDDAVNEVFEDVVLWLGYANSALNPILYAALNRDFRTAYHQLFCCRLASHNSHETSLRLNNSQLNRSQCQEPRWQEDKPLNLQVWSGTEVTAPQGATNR

As for `CN(C)Cc1nc2cc(CSCCC(N)=NC#N)ccc2[nH]1` [Example 125, N-cyano-3-[5-(2-dimethylaminomethylbenzimidazolyl)methylthio]propionamidine], the LD50 (usually the dose at which mortality reaches 50%) at 168 h in data set [1] (setting [5]) is over 1500 mg/kg.

Regarding `NC(=O)N=C(N)CCCOc1ccc2[nH]c(CN3CCCCC3)nc2c1` [Example 118, N-carbamoyl-4-[5-<2-(1-piperidinomethyl)benzimidazolyl>oxy]butyroamidine.3hydrochloride], the LD50 at 168 h in data set [1] (setting [5]) was over 1500 mg/kg.

Regarding `CN(C)Cc1nc2cc(OCCCNc3ncc(Cc4cccnc4)c(=O)[nH]3)ccc2[nH]1` [Example 66, 2-[3-<5-(2-dimethylaminomethylbenzimidazolyl)oxy>propylamino]-5-(3-pyridylmethyl)-4-pyrimidone], in data set [2], the inhibition in vivo at 2 mg/kg came to 100%. Also, in data set [3], the Kb was 1950 nM. In addition, the LD50 at 168 h in data set [1] (setting [5]) is over 1500 mg/kg.

Regarding `CN(C)Cc1nc2cc(CSCCNC3=NS(=O)(=O)N=C3N)ccc2[nH]1` [Example 104, 3-[2-<5-(2-dimethylaminomethylbenzimidazolyl)methylthio>ethyl]amino-4-amino-1,2,5-thiadiazole-1.1-dioxide], the inhibition in vivo at 2 mg/kg in data set [2] was found to be 96%. For the same compound, in data set [3], the Kb was 1950 nM. The LD50 at 168 h in data set [1] (setting [5]) is over 1500 mg/kg.

For the compound `CN/C(=N/CCSCc1nc[nH]c1C)NC#N` [Cimetidine, cimetidine, reference compound], in data set [4] (Rattus norvegicus, sc, 3 h, read-out: inhibitory effect of acid secretion (%) at 2 mg/kg s.c.), the inhibition in vivo at 2 mg/kg was 63%. In addition, the ED50 in data set [4] (Rattus norvegicus, sc) is 2.77 µmol/kg. The acid secretion inhibition in data set [4] (Table 2, dosage 2.0 μmol/kg) came to 37%; in data set [4] (Table 2, dosage 5.9 μmol/kg) it was 75%; in data set [4] (Table 2, dosage 17.8 μmol/kg), 83%.

With `CNC(=NC#N)NCCSCc1ccc2[nH]c(CN(C)C)nc2c1` [Example 35, N-cyano-N'-methyl-N"-[2-<5-(2-dimethylaminomethylbenzimidazolyl)methylthio>ethyl]guanidine], the inhibition in vivo at 2 mg/kg in data set [2] is 64%. In addition, in data set [3], the Kb was 646 nM. Moreover, the LD50 at 168 h in data set [1] (setting [5]) is over 1500 mg/kg.

In the case of `CN(C)Cc1nc2cc(CSCCC(N)=NC(N)=O)ccc2[nH]1` [Example 129, N-carbamoyl-3-[5-(2-dimethylaminomethylbenzimidazolyl)methylthio]propionamidine], in data set [2], the inhibition in vivo at 2 mg/kg was 72%. The Kb in data set [3] was 759 nM. The compound also came in with an LD50 at 168 h in data set [1] (setting [5]) of over 1500 mg/kg.

With `CNC(=C[N+](=O)[O-])NCCCCOc1ccc2[nH]c(CN3CCCCC3)nc2c1` [Example 30, 1-nitro-2-methylamino-2-{4-[5-<2-(1-piperidinomethyl)benzimidazolyl>oxy]butylamino}ethylene], in data set [2], the inhibition in vivo at 2 mg/kg was determined as 78%. Also, the Kb in data set [3] was 1380 nM.

In the case of `CCNc1n[s+]([O-])nc1NCCSCc1ccc2[nH]c(CN(C)C)nc2c1` (stereo not drawn) [Example 108, 3-[2-<5-(2-dimethylaminomethylbenzimidazolyl)methylthio>ethyl]amino-4-ethylamino-1,2,5-thiadiazole-1-oxide], in data set [2], the inhibition in vivo at 2 mg/kg was 77%. Moreover, in data set [3], the Kb is 1450 nM.

Turning to `CN(C)Cc1nc2cc(CSCCNc3ncc(CN(C)C)c(=O)[nH]3)ccc2[nH]1` [Example 73, 2-[2-<5-(2-dimethylaminomethylbenzimidazolyl)methylthio>ethylamino]-5-dimethylaminomethyl-4-pyrimidone], the inhibition in vivo at 2 mg/kg in data set [2] was 91%. In addition, in data set [3], the Kb was 631 nM.

As to `CCNc1n[s+]([O-])nc1NCCCOc1ccc2[nH]c(CN(C)C)nc2c1` (stereo not drawn) [Example 102, 3-[3-<5-(2-dimethylaminomethylbensimidazolyl)oxi>propyl]amino-4-ethylamino-1,2,5-thiadiazol-1-oxide], in data set [2], the inhibition in vivo at 2 mg/kg was determined as 68%. In data set [3], the Kb is 2190 nM.

Turning to `CNC(=C[N+](=O)[O-])NCCOc1ccc2[nH]c(CN3CCCC3)nc2c1` [Example 25, 1-nitro-2-methylamino-2-[2-<5-(2-(1-pyrrolidinomethyl)benzimidazolyl)oxy>ethylamino]ethylene], the inhibition in vivo at 2 mg/kg in data set [2] turned out to be 99%. For the same compound, the Kb in data set [3] is 631 nM.

For the compound `O=c1[nH]c(NCCCOc2ccc3[nH]c(CN4CCCC4)nc3c2)nnc1Cc1cccnc1` [Example 84], the inhibition in vivo at 2 mg/kg in data set [2] is 75%. Also, in data set [3], the Kb was 2190 nM. In addition, the LD50 at 168 h in data set [1] (setting [5]) was over 1500 mg/kg.

On to `CNC(=NC#N)NCCCOc1ccc2[nH]c(CN3CCCC3)nc2c1` [Example 3], for which the inhibition in vivo at 2 mg/kg in data set [2] is 54%. In addition, the Kb in data set [3] is 1170 nM.

`CN(C)Cc1nc2cc(CSCCNC(N)=NS(=O)(=O)c3ccccc3)ccc2[nH]1` [Example 46, N-benzenesulfonyl-N'-[2-<5-(2-dimethylaminomethylbenzimidazolyl)methylthio>ethyl]guanidine]: the inhibition in vivo at 2 mg/kg in data set [2] turned out to be 72%. For the same compound, the Kb in data set [3] was 1170 nM.

With `CNC(=C[N+](=O)[O-])NCCSCc1ccc2[nH]c(CN(C)C)nc2c1` [Example 42, 1-nitro-2-methylamino-2-[2-<5-(2-dimethylaminomethylbenzimidazolyl)methylthio>ethylamino]ethylene], in data set [2], the inhibition in vivo at 2 mg/kg turned out to be 93%. Moreover, in data set [3], the Kb is 1450 nM.

In the case of `CN(C)Cc1nc2cc(OCCCNc3nnc(Cc4cccnc4)c(=O)[nH]3)ccc2[nH]1` [Example 83, 3-[3-<5-(2-dimethylaminomethylbenzimidazolyl)oxy>propylamino]-6-(3-pyridylmethyl)-1,2,4-triazine-5-one], the inhibition in vivo at 2 mg/kg in data set [2] is 78%. The Kb in data set [3] was 4070 nM.

For the compound `CN(C)Cc1cccc(Cc2cnc(NCCCOc3ccc4[nH]c(CN(C)C)nc4c3)[nH]c2=O)c1` [Example 70, 2-[3-<5-(2-dimethylaminomethylbenzimidazolyl)oxy>propylamino]-5-(3-dimethylaminomethylbenzyl)-4-pyrimidone], the effective ratio in data set [4] (ED50 relative to cimetidine = 1.0) was found to be 25.2. Also, the ED50 in data set [4] (Rattus norvegicus, sc, pylorus-ligated rats, 95% confidence limit printed on following lines) is 0.11 µmol/kg. The acid secretion inhibition is reported as 35% in data set [4] (Table 2, dosage 0.067 μmol/kg); 71% in data set [4] (Table 2, dosage 0.204 μmol/kg); 93% in data set [4] (Table 2, dosage 0.613 μmol/kg). Moreover, in data set [2], the inhibition in vivo at 2 mg/kg turned out to be 102%. Further, the Kb in data set [3] is 2450 nM. In addition, in data set [1] (oral, groups of 5, 7 days observation), the LD50 at 168 h came to 2800 mg/kg.

As to `CNC(=NC#N)NCCCOc1ccc2[nH]c(CN3CCCCC3)nc2c1` [Example 5, N-cyano-N'-methyl-N"-{3-[5-<2-(1-piperidinomethyl)benzimidazolyl>oxy]propyl}guanidine], the inhibition in vivo at 2 mg/kg in data set [2] was 65%. In data set [3], the Kb is 1380 nM.

For `O=c1[nH]c(NCCCOc2ccc3[nH]c(CN4CCCCC4)nc3c2)ncc1Cc1ccc2c(c1)OCO2` [Example 64, 5-[5-(1,3-benzodioxolyl)methyl]-2-[3-<5-(2-(1-piperidinomethyl)benzimidazolyl)oxy>propylamino]-4-pyrimidone], the inhibition in vivo at 2 mg/kg in data set [2] was determined as 76%. Moreover, in data set [3], the Kb was 5890 nM.

On to `CNC(=C[N+](=O)[O-])NCCCOc1ccc2[nH]c(CN(C)C)nc2c1` [Example 27, 1-nitro-2-methylamino-2-[3-<5-(2-dimethylaminomethylbenzimidazolyl)oxy>propylamino]ethylene], for which the inhibition in vivo at 2 mg/kg in data set [2] turned out to be 73%. In addition, the Kb in data set [3] is 16200 nM. This compound also registered an LD50 at 168 h in data set [1] (setting [5]) of over 1500 mg/kg.

As to `CN(C)Cc1nc2cc(CSCCNc3nnc(Cc4cccnc4)c(=O)[nH]3)ccc2[nH]1` [Example 87, 3-[2-<5-(2-dimethylaminomethylbenzimidazolyl)methylthio>ethylamino]-6-(3-pyridylmethyl)-1,2,4-triazine-5-one], the inhibition in vivo at 2 mg/kg in data set [2] turned out to be 84%. In data set [3], the Kb was 603 nM.
